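Dose response: 5 concentrations. Exposure: 48 h. Format: 96-well plates. Endpoint: linear interpolation; highest concentration if not reached. GI50 = concentration required for 50% inhibition of growth. Definition used: TGI = concentration required for complete inhibition of growth.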
How the values were obtained:
Experiment in all cases: growth of human tumour cells (NCI), 48 h
786-0 renal = system: 786-0 renal
A498 renal = system: A498 renal
A549 NSCLC = system: A549 NSCLC
ACHN renal = system: ACHN renal
BT-549 breast = system: BT-549 breast
CAKI-1 renal = system: CAKI-1 renal
COLO 205 colon = system: COLO 205 colon
DU-145 prostate = system: DU-145 prostate
EKVX NSCLC = system: EKVX NSCLC
HCC-2998 colon = system: HCC-2998 colon
HCT-116 colon = system: HCT-116 colon
HCT-15 colon = system: HCT-15 colon
HL-60(TB) leukemia = system: HL-60(TB) leukemia
HOP-62 NSCLC = system: HOP-62 NSCLC
HOP-92 NSCLC = system: HOP-92 NSCLC
HS 578T breast = system: HS 578T breast
HT29 colon = system: HT29 colon
IGROV1 ovarian = system: IGROV1 ovarian
K-562 leukemia = system: K-562 leukemia
KM12 colon = system: KM12 colon
LOX IMVI melanoma = system: LOX IMVI melanoma
M14 melanoma = system: M14 melanoma
MALME-3M melanoma = system: MALME-3M melanoma
MCF7 breast = system: MCF7 breast
MDA-MB-231 breast = system: MDA-MB-231 breast
MDA-MB-435 = system: MDA-MB-435
MOLT-4 leukemia = system: MOLT-4 leukemia
NCI-H226 lung = system: NCI-H226 lung
NCI-H522 lung = system: NCI-H522 lung
NCI/ADR-RES ovarian = system: NCI/ADR-RES ovarian
OVCAR-3 ovarian = system: OVCAR-3 ovarian
OVCAR-4 ovarian = system: OVCAR-4 ovarian
OVCAR-5 ovarian = system: OVCAR-5 ovarian
OVCAR-8 ovarian = system: OVCAR-8 ovarian
PC-3 prostate = system: PC-3 prostate
RPMI-8226 leukemia = system: RPMI-8226 leukemia
RXF 393 renal = system: RXF 393 renal
SF-268 CNS = system: SF-268 CNS
SF-295 CNS = system: SF-295 CNS
SF-539 CNS = system: SF-539 CNS
SK-MEL-2 melanoma = system: SK-MEL-2 melanoma
SK-MEL-28 melanoma = system: SK-MEL-28 melanoma
SK-MEL-5 melanoma = system: SK-MEL-5 melanoma
SK-OV-3 ovarian = system: SK-OV-3 ovarian
SN12C renal = system: SN12C renal
SNB-19 CNS = system: SNB-19 CNS
SNB-75 CNS = system: SNB-75 CNS
SR leukemia = system: SR leukemia
SW-620 colon = system: SW-620 colon
T-47D breast = system: T-47D breast
TK-10 renal = system: TK-10 renal
U251 CNS = system: U251 CNS
UACC-257 melanoma = system: UACC-257 melanoma
UACC-62 melanoma = system: UACC-62 melanoma
UO-31 renal = system: UO-31 renal

CCOC(=O)Cc1csc(NC(=O)COC(=O)c2ccc(N)cc2)n1
GI50 (786-0 renal): 23.8 µM
TGI (786-0 renal): 56.9 µM
GI50 (A498 renal): > 100 µM
TGI (A498 renal): > 100 µM
GI50 (A549 NSCLC): > 100 µM
TGI (A549 NSCLC): > 100 µM
GI50 (ACHN renal): > 100 µM
TGI (ACHN renal): > 100 µM
GI50 (BT-549 breast): > 100 µM
TGI (BT-549 breast): > 100 µM
GI50 (CAKI-1 renal): > 100 µM
TGI (CAKI-1 renal): > 100 µM
GI50 (COLO 205 colon): > 100 µM
TGI (COLO 205 colon): > 100 µM
GI50 (DU-145 prostate): > 100 µM
TGI (DU-145 prostate): > 100 µM
GI50 (EKVX NSCLC): > 100 µM
TGI (EKVX NSCLC): > 100 µM
GI50 (HCC-2998 colon): > 100 µM
TGI (HCC-2998 colon): > 100 µM
GI50 (HCT-116 colon): > 100 µM
TGI (HCT-116 colon): > 100 µM
GI50 (HCT-15 colon): > 100 µM
TGI (HCT-15 colon): > 100 µM
GI50 (HL-60(TB) leukemia): 20 µM
TGI (HL-60(TB) leukemia): 41.3 µM
GI50 (HOP-62 NSCLC): > 100 µM
TGI (HOP-62 NSCLC): > 100 µM
GI50 (HOP-92 NSCLC): 20.7 µM
TGI (HOP-92 NSCLC): 44.8 µM
GI50 (HS 578T breast): > 100 µM
TGI (HS 578T breast): > 100 µM
GI50 (HT29 colon): 56.9 µM
TGI (HT29 colon): > 100 µM
GI50 (IGROV1 ovarian): 21.8 µM
TGI (IGROV1 ovarian): 49.8 µM
GI50 (K-562 leukemia): 88.3 µM
TGI (K-562 leukemia): > 100 µM
GI50 (KM12 colon): > 100 µM
TGI (KM12 colon): > 100 µM
GI50 (LOX IMVI melanoma): 14.1 µM
TGI (LOX IMVI melanoma): 34.6 µM
GI50 (M14 melanoma): > 100 µM
TGI (M14 melanoma): > 100 µM
GI50 (MALME-3M melanoma): > 100 µM
TGI (MALME-3M melanoma): > 100 µM
GI50 (MCF7 breast): 97.9 µM
TGI (MCF7 breast): > 100 µM
GI50 (MDA-MB-231 breast): > 100 µM
TGI (MDA-MB-231 breast): > 100 µM
GI50 (MDA-MB-435): > 100 µM
TGI (MDA-MB-435): > 100 µM
GI50 (MOLT-4 leukemia): 28.5 µM
TGI (MOLT-4 leukemia): 81.4 µM
GI50 (NCI-H226 lung): > 100 µM
TGI (NCI-H226 lung): > 100 µM
GI50 (NCI-H522 lung): 18.8 µM
TGI (NCI-H522 lung): 40 µM
GI50 (NCI/ADR-RES ovarian): > 100 µM
TGI (NCI/ADR-RES ovarian): > 100 µM
GI50 (OVCAR-3 ovarian): 18.8 µM
TGI (OVCAR-3 ovarian): 50.7 µM
GI50 (OVCAR-4 ovarian): 72 µM
TGI (OVCAR-4 ovarian): > 100 µM
GI50 (OVCAR-5 ovarian): 59.3 µM
TGI (OVCAR-5 ovarian): > 100 µM
GI50 (OVCAR-8 ovarian): 95.7 µM
TGI (OVCAR-8 ovarian): > 100 µM
GI50 (PC-3 prostate): 68.4 µM
TGI (PC-3 prostate): > 100 µM
GI50 (RPMI-8226 leukemia): 40.4 µM
TGI (RPMI-8226 leukemia): > 100 µM
GI50 (RXF 393 renal): > 100 µM
TGI (RXF 393 renal): > 100 µM
GI50 (SF-268 CNS): 23.6 µM
TGI (SF-268 CNS): 60 µM
GI50 (SF-295 CNS): > 100 µM
TGI (SF-295 CNS): > 100 µM
GI50 (SF-539 CNS): 19.3 µM
TGI (SF-539 CNS): 37 µM
GI50 (SK-MEL-2 melanoma): > 100 µM
TGI (SK-MEL-2 melanoma): > 100 µM
GI50 (SK-MEL-28 melanoma): > 100 µM
TGI (SK-MEL-28 melanoma): > 100 µM
GI50 (SK-MEL-5 melanoma): 97.6 µM
TGI (SK-MEL-5 melanoma): > 100 µM
GI50 (SK-OV-3 ovarian): > 100 µM
TGI (SK-OV-3 ovarian): > 100 µM
GI50 (SN12C renal): > 100 µM
TGI (SN12C renal): > 100 µM
GI50 (SNB-19 CNS): > 100 µM
TGI (SNB-19 CNS): > 100 µM
GI50 (SNB-75 CNS): 54.4 µM
TGI (SNB-75 CNS): > 100 µM
GI50 (SR leukemia): 13.4 µM
TGI (SR leukemia): 45.2 µM
GI50 (SW-620 colon): > 100 µM
TGI (SW-620 colon): > 100 µM
GI50 (T-47D breast): 75.4 µM
TGI (T-47D breast): > 100 µM
GI50 (TK-10 renal): > 100 µM
TGI (TK-10 renal): > 100 µM
GI50 (U251 CNS): > 100 µM
TGI (U251 CNS): > 100 µM
GI50 (UACC-257 melanoma): > 100 µM
TGI (UACC-257 melanoma): > 100 µM
GI50 (UACC-62 melanoma): > 100 µM
TGI (UACC-62 melanoma): > 100 µM
GI50 (UO-31 renal): 76.6 µM
TGI (UO-31 renal): > 100 µM
